Experimental data as given in patent publication US20210052621A1, “METHODS FOR TREATING FLAVIVIRUSES AND ZIKA INFECTIONS” (THE REGENTS OF THE UNIVERSITY OF CALIFORNIA, priority 2017, published 2021).
Entries after “also recorded” stand apart in the source; their conditions may differ. Structures can show the parent of a compound that is named as a salt.

Legend:
ZIKA in Vero cells = assay: Screening of additional compounds for ZIKA levels using Vero cells (viral RNA released, qRT-PCR); format: cell-based, Zika virus; conditions: 10 μM, viral RNA released by qRT-PCR
Experimental: FIG. 6. Screening of additional compounds for ZIKA levels using Vero cells (in 10 μM concentration). Methods of screening were as described herein. Viral RNA released was analyzed by qRT-PCR for ZIKA. Compounds (left to right): control, berberine, fluoxetine, formoterol, genistine, U0126, dibucaine, pirlindole, suramin, mycophenolic acid, polyhydroxyalkanoates, (PHA) and niclosamide.
FIG. 7. Screening of additional compounds for ZIKA levels using Vero cells (in 10 μM concentration) as described for FIG. 6. Compounds (left to right): clomiphene, amphotericin B, and toremifene.
FIG. 8. Screening of additional compounds for ZIKA levels using Vero cells (in 10 μM concentration) as described for FIG. 6.
FIG. 6 depicts ZIKV levels as determined by qRT-PCR for ZIKA in Vero cells at 10 μM concentration (left to right) of control, berberine, fluoxentine, formoterol, genistine, U0126, dibucaine, pirlindole, suramin, mycophenolic acid, PHA, and niclosamide.
FIG. 7 depicts dose response studies on ZIKV levels for clomiphene, amphotericin B, and toremifene.
FIG. 8 depicts ZIKV levels after administration of various agents. […] Zidovudine. Acyclovir. Drostanolone Propionate, Dapivirine (TMC120), Tilorone hydrochloride, and Docosanol.

[1] = test system: Zika virus in 293 T cells; assay: Dose dependent inhibition of Zika virus in 293 T cells, IC50 calculated; format: cell-based; conditions: MOI of 5, different concentration of drugs
Experimental: FIGS. 2A-2D. […] FIG. 2A—Lopinavir. FIG. 2B—Daclatasvir. FIG. 2C—Oxyclozanide. FIG. 2D—Rafoxanide.
Conditions: Zika virus in 293 T cells at the MOI of 5 using different concentration of drugs. IC50 was calculated.

ZIKA in 293 cells = assay: ZIKA inhibition in 293 cells visualized by immune staining; format: cell-based, Zika virus; conditions: 20 μM
Description: FIGS. 9A-9K. […] Drugs: mock (FIG. 9A), DMSO (FIG. 9B), PHA-690509 (FIG. 9C), formoterol (FIG. 9D), fluoxetine (FIG. 9E), genistein (FIG. 9F), U0126 (FIG. 9G), berberine (FIG. 9H), dibucaine (FIG. 9I), pirlindole (FIG. 9J), and suramin (FIG. 9K). Left panels: DAPI; right panels: ZIKV.
Agents in order (top to bottom): mock, DMSO, PHA-690509, formoterol, fluoxetine, genistein, U0126, berberine, dibucaine, pirlindole, and suramin.

[2] = test system: ZIKV in human microglial cell line; assay: ZIKV replication in microglia treated with nucleoside metabolic inhibitors (RT-qPCR, immunohistochemistry); format: cell-based, Zika virus; conditions: MOI of 1, 1 μM and 10 μM, 48 hpi
Experimental: FIGS. 14A-14D. Nucleoside Metabolic Inhibitors Attenuate ZIKV Replication. (FIG. 14A) ZIKV replication assessed by RT-qPCR analysis 48 hours post-infection in mock, ZIKV only, ZIKV plus 1 μM floxuridine or ZIKV plus 10 μM floxuridine treated microglia. Data are presented as the mean±SEM of n=3. *p<0.05, **p<0.01 by t-test. (FIG. 14B) Immunohistochemistry of ZIKV gene expression in mock, ZIKV only, ZIKV plus 1 μM floxuridine (FUDX1) or ZIKV plus 10 μM floxuridine (FUDX10) treated microglia. Cells were stained with anti-flavivirus envelope protein (ZIKVE), and nuclei were visualized with Hoechst 33258. (FIG. 14C) ZIKV replication assessed by RT-qPCR analysis 48 hours post-infection in mock, ZIKV only, ZIKV plus fluorouracil or ZIKV plus 10 μM fluorouracil treated microglia. Data are presented as the mean±SEM of n=3. *p<0.05, **p<0.01 by t-test. […]
Since metabolic processes are the most dysregulated pathways during ZIKV infection at the transcriptome level, we hypothesized that inhibition of these pathways could be exploited for therapeutic effects. […] The effect of the antimetabolites floxuridine (FIGS. 14A-14B) and flurouracil (FIGS. 14C-14D) on ZIKV replication was assessed 48 hpi at the RNA and protein level by RT-qPCR and immunohistochemistry, respectively.
Drug Treatment. […] ZIKV RNA was quantified by using specific primers by SYBR Green PCR Master Mix (Bio-Rad) using a Roche LightCycler 480. […]

Cc1cc(C)c(Nc2ccnc(Nc3ccc(C#N)cc3)n2)c(C)c1 [Dapivirine (TMC120), 4-{[4-(mesitylamino)-2-pyrimidinyl]amino}benzonitrile]
ZIKV levels / ZIKV load (Hits) (ZIKA in Vero cells): reduce ZIKV load

CCCCCCCCCCCCCCCCCCCCCCO [Docosanol]
ZIKV levels / ZIKV load (Hits) (ZIKA in Vero cells): reduce ZIKV load

Nc1nc2c(ncn2COC(CO)CO)c(=O)[nH]1 [Ganciclovir, 9-(1,3-dihydroxy-2-propoxymethyl)guanine]
ZIKV levels / ZIKV load (Hits) (ZIKA in Vero cells): reduce ZIKV load

Cc1cccc(C)c1OCC(=O)N[C@@H](Cc1ccccc1)[C@@H](O)C[C@H](Cc1ccccc1)NC(=O)[C@H](C(C)C)N1CCCNC1=O [Lopinavir, (2S)—N-[(2S,4S,5S)-5-[2-(2,6-dimethylphenoxy)acetamido]-4-hydroxy-1,6-diphenylhexan-2-yl]-3-methyl-2-(2-oxo-1,3-diazinan-1-yl)butanamide]
Dose dependent inhibition of Zika virus [1]: Dose dependent inhibition

O=C(Nc1cc(Cl)cc(Cl)c1O)c1c(O)c(Cl)cc(Cl)c1Cl [Oxyclozanide]
Dose dependent inhibition of Zika virus [1]: Dose dependent inhibition

CC(=O)Nc1ccc([C@H](C)C(=O)Nc2ncc(C(C)C)s2)cc1 [PHA-690509]
ZIKA inhibition visualized by immune staining (ZIKA in 293 cells): ZIKA inhibition

CCN(CC)CCOC(=O)c1ccc(N)cc1 [Procaine hydrochloride, 4-amino-, 2-(diethylamino) ethyl ester monohydrochloride]
ZIKV levels / ZIKV load (Hits) (ZIKA in Vero cells): reduce ZIKV load

O=C(Nc1ccc(Oc2ccc(Cl)cc2)c(Cl)c1)c1cc(I)cc(I)c1O [Rafoxanide]
Dose dependent inhibition of Zika virus [1]: Dose dependent inhibition

CCN(CC)CCOc1ccc2c(c1)C(=O)c1cc(OCCN(CC)CC)ccc1-2.Cl [Tilorone hydrochloride, 2,7-Bis(2-diethylaminoethoxy)fluoren-9-one hydrochloride]
ZIKV levels / ZIKV load (Hits) (ZIKA in Vero cells): reduce ZIKV load

N#CC(=C(/N)Sc1ccccc1N)/C(C#N)=C(\N)Sc1ccccc1N [U0126]
ZIKA inhibition visualized by immune staining (ZIKA in 293 cells): ZIKA inhibition

Cc1cn([C@H]2C[C@H](N=[N+]=[N-])[C@@H](CO)O2)c(=O)[nH]c1=O [Zidovudine, 3′-deoxy-3′-azido-thymidine]
ZIKV levels / ZIKV load (Hits) (ZIKA in Vero cells): reduce ZIKV load

COc1ccc2cc3[n+](cc2c1OC)CCc1cc2c(cc1-3)OCO2 [berberine]
ZIKA inhibition visualized by immune staining (ZIKA in 293 cells): ZIKA inhibition

CCCCOc1cc(C(=O)NCCN(CC)CC)c2ccccc2n1 [dibucaine]
ZIKA inhibition visualized by immune staining (ZIKA in 293 cells): ZIKA inhibition

O=c1[nH]c(=O)n([C@H]2C[C@H](O)[C@@H](CO)O2)cc1F [floxuridine]
ZIKV replication (RT-qPCR and immunohistochemistry) [2]: inhibited ZIKV more efficiently in a dose dependent manner than flurouracil; also recorded: dose-dependent inhibition of ZIKV replication; also recorded: abrogated ZIKV replication

CNCCC(Oc1ccc(C(F)(F)F)cc1)c1ccccc1 (centres unmarked) [fluoxetine, N-methyl-3-phenyl-3-[4-(trifluoromethyl)phenoxy]propan-1-amine]
ZIKA inhibition visualized by immune staining (ZIKA in 293 cells): ZIKA inhibition

O=c1[nH]cc(F)c(=O)[nH]1 [flurouracil]
ZIKV replication (RT-qPCR and immunohistochemistry) [2]: affected ZIKV

COc1ccc(CC(C)NCC(O)c2ccc(O)c(NC=O)c2)cc1 (centres unmarked) [formoterol]
ZIKA inhibition visualized by immune staining (ZIKA in 293 cells): ZIKA inhibition

O=c1c(-c2ccc(O)cc2)coc2cc(O)cc(O)c12 [genistein]
ZIKA inhibition visualized by immune staining (ZIKA in 293 cells): ZIKA inhibition

Cc1ccc2c(c1)c1c3n2CCNC3CCC1 (centres unmarked) [pirlindole]
ZIKA inhibition visualized by immune staining (ZIKA in 293 cells): ZIKA inhibition

Cc1ccc(C(=O)Nc2ccc(S(=O)(=O)O)c3cc(S(=O)(=O)O)cc(S(=O)(=O)O)c23)cc1NC(=O)c1cccc(NC(=O)Nc2cccc(C(=O)Nc3cc(C(=O)Nc4ccc(S(=O)(=O)O)c5cc(S(=O)(=O)O)cc(S(=O)(=O)O)c45)ccc3C)c2)c1 [suramin, 8,8′-{Carbonylbis[imino-3,1-phenylenecarbonylimino(4-methyl-3,1-phenylene)carbonylimino]}di(1,3,5-naphthalenetrisulfonic acid)]
ZIKA inhibition visualized by immune staining (ZIKA in 293 cells): ZIKA inhibition
